Key:
P. mirabilis (ATCC29906) [1] = assay: Antibacterial strength (bacteriostatic reduction rate) by Methods 1 to 4, broth culture absorbance at 600 nm; type: cell-based; details: Proteus mirabilis, 16 hours, 35° C.; for inhibition of growth at 200 µg/mL: amount of antibacterial composition added 0.005 g in 25 ml broth, 3,000 CFU/ml, read-out: Antibacterial strength (%) Method 2; for inhibition of growth at 400 µg/mL: amount of antibacterial composition added 0.01 g in 25 ml broth, 3,000 CFU/ml, read-out: Antibacterial strength (%) Method 4; for inhibition of growth at 600 µg/mL: amount of antibacterial composition added 0.015 g in 25 ml broth, 3,000 CFU/ml, read-out: Antibacterial strength (%) Method 1; for inhibition of growth at 800 µg/mL: amount of antibacterial composition added 0.02 g in 25 ml broth, 3,000 CFU/ml, read-out: Antibacterial strength (%) Method 3
Experimental: (§1) After 25 ml of a broth-type medium (Nutrient broth, BD DIFCO., 8 g/L) inoculated with 3,000 CFU/ml bacteria is put into a 50 mL conical tube, 0.015 g of the antibacterial composition is added thereto and suspended (by vortexing), a sufficiently mixed solution is incubated for 16 hours in a shaking water bath maintained at 35° C.
(§2) After the incubated solution was diluted to ⅕ using a 1×PBS buffer solution, absorbance (λ=600 nm) was measured using a UV/Vis spectrophotometer, and the antibacterial strength, which is a bacteriostatic reduction rate, is calculated by the following equation by comparing the measured absorbance with a solution incubated without the addition of the antibacterial composition.
(§3) Antibacterial strength(%)=(1−Asample/AReference)×100 • Asample=Absorbance of medium solution incubated by adding antibacterial composition • AReference=Absorbance of medium solution incubated without addition of antibacterial composition
(§4) This method is the same as Method 1, except that 0.005 g of the antibacterial composition is added instead of 0.015 g of the antibacterial composition.
(§5) This method is the same as Method 1, except that 0.02 g of the antibacterial composition is added instead of 0.015 g of the antibacterial composition.
(§6) This method is the same as Method 1, except that 0.01 g of the antibacterial composition is added instead of 0.015 g of the antibacterial composition.
The antibacterial strength of Monomers 1 to 10 and Comparative Monomers 1 and 2 by Methods 1 to 4 was measured, and is shown in the following Table 1. In this case, the P. mirabilis (ATCC29906) bacteria were used.

P. mirabilis (ATCC29906) [2] = assay: Time at which 99.9% of the antibacterial strength is confirmed (Methods 1 to 4); type: cell-based, Proteus mirabilis; details: for Time at which 99.9% of the antibacterial strength is confirmed, Method 2: amount of antibacterial composition added 0.005 g; for Time at which 99.9% of the antibacterial strength is confirmed, Method 4: amount of antibacterial composition added 0.01 g; for Time at which 99.9% of the antibacterial strength is confirmed, Method 1: amount of antibacterial composition added 0.015 g; for Time at which 99.9% of the antibacterial strength is confirmed, Method 3: amount of antibacterial composition added 0.02 g
Experimental: as §1, §2, §3, §4, §5, §6
The time at which 99.9% of the antibacterial strength of Monomers 1 to 10 and Comparative Monomers 1 and 2 is confirmed is shown in the following Table 2.

[3] = Acute oral toxicity dose LD50 by 3T3 Neutral Red Uptake (NRU) assay (OECD Guidance Document No 129); type: cell-based; details: mouse, 3T3 cells, po, calculated from 3T3 NRU assay
Experimental: (§7) The acute oral toxicity dose LD50 and acute percutaneous toxicity dose LD50 were measured by 3T3 Neutral Red Uptake (NRU) assay (OECD Guidance Document No 129). Specifically, the acute oral toxicity dose LD50 and acute percutaneous toxicity dose LD50 can be calculated by the following method: […]

[4] = Acute percutaneous toxicity dose LD50 by 3T3 Neutral Red Uptake (NRU) assay (OECD Guidance Document No 129); type: cell-based; details: mouse, 3T3 cells, other: percutaneous, calculated from 3T3 NRU assay
Experimental: as §7

3T3 = assay: Acute oral toxicity dose LD50 by 3T3 Neutral Red Uptake (NRU) assay (OECD Guidance Document No 129); type: cell-based; details: calculated from 3T3 NRU assay
Experimental: as §7

C=C(C)C(=O)OCC[N+](CCCC)(CCCCCCCCCC)CCCCCCCCCC [Monomer 8]
inhibition of growth at 200 µg/mL (P. mirabilis (ATCC29906) [1]): 99.9% | inhibition of growth at 400 µg/mL (P. mirabilis (ATCC29906) [1]): 99.9% | inhibition of growth at 600 µg/mL (P. mirabilis (ATCC29906) [1]): 99.9% | inhibition of growth at 800 µg/mL (P. mirabilis (ATCC29906) [1]): 99.9% | Time at which 99.9% of the antibacterial strength is confirmed, Method 2 (P. mirabilis (ATCC29906) [2]): Within 1 hour | Time at which 99.9% of the antibacterial strength is confirmed, Method 4 (P. mirabilis (ATCC29906) [2]): Within 1 hour | Time at which 99.9% of the antibacterial strength is confirmed, Method 1 (P. mirabilis (ATCC29906) [2]): Within 1 hour | Time at which 99.9% of the antibacterial strength is confirmed, Method 3 (P. mirabilis (ATCC29906) [2]): Within 1 hour | LD50 [3]: 869 mg/kg | LD50 [4]: ≥ 2000 mg/kg

C=CC(=O)OCCCC[N+](CCCCCCCC)(CCCCCCCC)CCCCCCCC [Monomer 10]
inhibition of growth at 200 µg/mL (P. mirabilis (ATCC29906) [1]): 99.9% | inhibition of growth at 400 µg/mL (P. mirabilis (ATCC29906) [1]): 99.9% | inhibition of growth at 600 µg/mL (P. mirabilis (ATCC29906) [1]): 99.9% | inhibition of growth at 800 µg/mL (P. mirabilis (ATCC29906) [1]): 99.9% | Time at which 99.9% of the antibacterial strength is confirmed, Method 2 (P. mirabilis (ATCC29906) [2]): Within 1 hour | Time at which 99.9% of the antibacterial strength is confirmed, Method 4 (P. mirabilis (ATCC29906) [2]): Within 1 hour | Time at which 99.9% of the antibacterial strength is confirmed, Method 1 (P. mirabilis (ATCC29906) [2]): Within 1 hour | Time at which 99.9% of the antibacterial strength is confirmed, Method 3 (P. mirabilis (ATCC29906) [2]): Within 1 hour | LD50 [3]: ≥ 1000 mg/kg | Acute oral toxicity dose (mg/Kg) LD50 (3T3): 1,242 mg/Kg | LD50 [4]: ≥ 2000 mg/kg

C=CC(=O)OCC[N+](CCCCCCCCCCCCCC)(CCCCCCCCCCCCCC)CCCCCCCCCCCCCC [Comparative Monomer 2, reference compound]
inhibition of growth at 200 µg/mL (P. mirabilis (ATCC29906) [1]): 99.9% | inhibition of growth at 400 µg/mL (P. mirabilis (ATCC29906) [1]): 99.9% | inhibition of growth at 600 µg/mL (P. mirabilis (ATCC29906) [1]): 99.9% | inhibition of growth at 800 µg/mL (P. mirabilis (ATCC29906) [1]): 99.9% | Time at which 99.9% of the antibacterial strength is confirmed, Method 2 (P. mirabilis (ATCC29906) [2]): Within 1 hour | Time at which 99.9% of the antibacterial strength is confirmed, Method 4 (P. mirabilis (ATCC29906) [2]): Within 1 hour | Time at which 99.9% of the antibacterial strength is confirmed, Method 1 (P. mirabilis (ATCC29906) [2]): Within 1 hour | Time at which 99.9% of the antibacterial strength is confirmed, Method 3 (P. mirabilis (ATCC29906) [2]): Within 1 hour | LD50 [3]: 231 mg/kg

C=CC(=O)OCC[N+](CCCC)(CCCC)CCCCCCCC [Monomer 1]
inhibition of growth at 200 µg/mL (P. mirabilis (ATCC29906) [1]): 59.3% | inhibition of growth at 400 µg/mL (P. mirabilis (ATCC29906) [1]): 68.2% | inhibition of growth at 600 µg/mL (P. mirabilis (ATCC29906) [1]): 99.9% | inhibition of growth at 800 µg/mL (P. mirabilis (ATCC29906) [1]): 99.9% | Time at which 99.9% of the antibacterial strength is confirmed, Method 1 (P. mirabilis (ATCC29906) [2]): Within 1 hour | Time at which 99.9% of the antibacterial strength is confirmed, Method 3 (P. mirabilis (ATCC29906) [2]): Within 1 hour | LD50 [3]: ≥ 1000 mg/kg | Acute oral toxicity dose (mg/Kg) LD50 (3T3): 1,708 mg/Kg | LD50 [4]: ≥ 2000 mg/kg

C=CC(=O)OCC[N+](CCCCCCCC)(CCCCCCCC)CCCCCCCC [Monomer 4]
inhibition of growth at 200 µg/mL (P. mirabilis (ATCC29906) [1]): 99.9% | inhibition of growth at 400 µg/mL (P. mirabilis (ATCC29906) [1]): 99.9% | inhibition of growth at 600 µg/mL (P. mirabilis (ATCC29906) [1]): 99.9% | inhibition of growth at 800 µg/mL (P. mirabilis (ATCC29906) [1]): 99.9% | Time at which 99.9% of the antibacterial strength is confirmed, Method 2 (P. mirabilis (ATCC29906) [2]): Within 1 hour | Time at which 99.9% of the antibacterial strength is confirmed, Method 4 (P. mirabilis (ATCC29906) [2]): Within 1 hour | Time at which 99.9% of the antibacterial strength is confirmed, Method 1 (P. mirabilis (ATCC29906) [2]): Within 1 hour | Time at which 99.9% of the antibacterial strength is confirmed, Method 3 (P. mirabilis (ATCC29906) [2]): Within 1 hour | LD50 [3]: ≥ 1000 mg/kg | Acute oral toxicity dose (mg/Kg) LD50 (3T3): 1,442 mg/Kg | LD50 [4]: ≥ 2000 mg/kg

C=CC(=O)OCCCC[N+](CCCC)(CCCC)CCCCCCCC [Monomer 9]
inhibition of growth at 200 µg/mL (P. mirabilis (ATCC29906) [1]): 61.2% | inhibition of growth at 400 µg/mL (P. mirabilis (ATCC29906) [1]): 70% | inhibition of growth at 600 µg/mL (P. mirabilis (ATCC29906) [1]): 99.9% | inhibition of growth at 800 µg/mL (P. mirabilis (ATCC29906) [1]): 99.9% | Time at which 99.9% of the antibacterial strength is confirmed, Method 1 (P. mirabilis (ATCC29906) [2]): Within 1 hour | Time at which 99.9% of the antibacterial strength is confirmed, Method 3 (P. mirabilis (ATCC29906) [2]): Within 1 hour | LD50 [3]: ≥ 1000 mg/kg | Acute oral toxicity dose (mg/Kg) LD50 (3T3): 1,498 mg/Kg | LD50 [4]: ≥ 2000 mg/kg

Source: patent US20240107999A1, “ANTIBACTERIAL COMPOSITION” (LG CHEM, LTD., priority 2021, published 2024)
